Laboratory results as given in patent US20220127297A1, “Novel Antibacterial 3"-Derivatives Of 4,6-Disubstituted 2,5-Dideoxystreptamine Aminoglycoside Antibiotics” (AGILeBiotics B.V., priority 2018, published 2022).
Converted amounts (≈) assume the structure as drawn.

Legend:
E. coli (APH(3′)Ia) = test: MIC 50, broth micro-dilution, E. coli expressing APH(3′)Ia; format: cell-based, Escherichia coli
Outline: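 Two-fold dilution series of compound (64 μM top, final) in MH2 broth, inoculated with plasmid-transformed E. coli ATCC 25922 at OD 0.1 and incubated 18 h, 37° C. Half-maximal growth by OD600 defined MIC50.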

E. coli ATCC25922 strain = test: MIC 50, broth micro-dilution, wild-type Escherichia coli; format: cell-based; settings: MH2, 18 h
Outline: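 Two-fold dilution series (final 64 μM–31.3 nM) tested in triplicate in Mueller Hinton 2 broth against E. coli ATCC 25922 and plasmid-bearing derivatives, inoculum OD600 0.1. After 18 h at 37° C with shaking, averaged OD600 gave growth curves; MIC50 taken where growth fell to half-maximal.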

[1] = Escherichia coli, ATCC25922, ATCC25922 harboring plasmid encoding APH(3′)Ia
[2] = Escherichia coli, ATCC25922, 18 h
[3] = ATCC25922 harboring plasmid encoding APH(3′)Ia

Row | SMILES | MIC50 (E. coli (APH(3′)Ia); [1]) [µM] | MIC50 (E. coli ATCC25922 strain; [2]) [µM] | MIC50 (E. coli (APH(3′)Ia); [3]) [µM] | MIC50 (E. coli ATCC25922 strain) [µM]
1 | N=C(N)NC1C(O)[C@@H](CO)OC(OC2C(F)[C@H](O[C@H]3OC(CN)[C@@H](O)CC3N)C(N)C[C@H]2NC(=O)[C@@H](O)CCN)[C@@H]1O (stereo partly drawn) [ABX5006, Tobra-AHB-F-Gua] | 0.5 (≈ 0.306 µg/mL) | < 0.25 |  | 
2 | N=C(NCCN)NC1C(O)[C@@H](CO)OC(OC2C(F)[C@H](O[C@H]3OC(CN)[C@@H](O)CC3N)C(N)C[C@H]2NC(=O)[C@@H](O)CCN)[C@@H]1O (stereo partly drawn) [ABX5020, Tobra-AHB-F-Gua-2-amino-ethyl] | 1 to 2 (≈ 0.656 to 1.31 µg/mL) | 0.5 (≈ 0.328 µg/mL) |  | 
3 | N=C(N)NC1[C@@H](O)C(OC2[C@@H](O)[C@H](O[C@H]3OC(CN)[C@@H](O)CC3N)C(N)C[C@H]2NC(=O)[C@@H](O)CCN)O[C@H](CO)[C@H]1O (stereo partly drawn) [ABX5005, Tobra-AHB-Gua] |  |  | 2 to 4 | 1 to 2
4 | NCCC(O)C(=O)NC1CC(N)C(OC2OC(CN)C(O)C(O)C2O)C(F)C1OC1OC(CO)C(O)C(N)C1O (stereo not drawn) [ABX3005, 3′Epi-KanaA-AHB-F] |  |  | 8 to 16 | 4 (≈ 2.35 µg/mL)
5 | N=C(N)NC1[C@@H](O)C(OC2[C@@H](O)[C@H](O[C@H]3OC(CN)[C@@H](O)[C@H](O)C3N)C(N)C[C@H]2NC(=O)[C@@H](O)CCN)O[C@H](CO)[C@H]1O (stereo partly drawn) [ABX4009, KanaB-AHB-Gua] |  |  | 8 (≈ 5.01 µg/mL) | 2 (≈ 1.25 µg/mL)
6 | N=C(NCC1CC1)NC1[C@@H](O)C(OC2[C@@H](F)[C@H](O[C@H]3OC(CN)[C@@H](O)CC3N)C(N)C[C@H]2NC(=O)[C@@H](O)CCN)O[C@H](CO)[C@H]1O (stereo partly drawn) [ABX5027, Tobra-AHB-F-Gua cyclopropylmethyl] | 1 (≈ 0.667 µg/mL) | 0.5 (≈ 0.333 µg/mL) |  | 
7 | N=C(N)NC1[C@@H](O)C(OC2[C@@H](F)[C@H](O[C@H]3OC(CN)[C@@H](O)[C@H](O)C3N)C(N)C[C@H]2NC(=O)[C@@H](O)CCN)O[C@H](CO)[C@H]1O (stereo partly drawn) [ABX4004, 3′epi-KanaB-AHB-F-Gua] |  |  | 4 (≈ 2.51 µg/mL) | 1 to 2
8 | NCC[C@H](O)C(=O)N[C@@H]1CC(N)[C@@H](O[C@H]2OC(CN)[C@@H](O)CC2N)[C@H](O)C1OC1O[C@H](CO)[C@@H](O)C(N)[C@H]1O (stereo partly drawn) [ABX5004, Tobra-AHB] |  |  | 4 to 8 | 2 (≈ 1.14 µg/mL)
9 | NCC[C@H](O)C(=O)N[C@@H]1CC(N)[C@@H](O[C@H]2OC(CN)[C@@H](O)[C@@H](O)C2N)[C@H](O)C1OC1O[C@H](CO)[C@@H](O)C(N)[C@H]1O (stereo partly drawn) [ABX4002, 3′Epi-KanaB-AHB] |  |  | 8 to 16 | 8 (≈ 4.68 µg/mL)
10 | N=C(NC[C@H]1CCNC1)NC1[C@@H](O)C(OC2[C@@H](F)[C@H](O[C@H]3OC(CN)[C@@H](O)CC3N)C(N)C[C@H]2NC(=O)[C@@H](O)CCN)O[C@H](CO)[C@H]1O (stereo partly drawn) [ABX5042, Tobra-AHB-F-Gua (S) pyrrolidine-3-ylmethyl] | 0.25 (≈ 0.174 µg/mL) | 0.25 (≈ 0.174 µg/mL) |  | 
11 | CC(C)(C)CCNC(=N)NC1[C@@H](O)C(OC2[C@@H](F)[C@H](O[C@H]3OC(CN)[C@@H](O)CC3N)C(N)C[C@H]2NC(=O)[C@@H](O)CCN)O[C@H](CO)[C@H]1O (stereo partly drawn) [ABX5025, Tobra-AHB-F-Gua 2-tBu-ethyl] | 1 (≈ 0.697 µg/mL) | 0.25 to 0.5 (≈ 0.174 to 0.348 µg/mL) |  | 
12 | NCC[C@H](O)C(=O)N[C@@H]1C[C@H](N)[C@@H](O[C@H]2O[C@H](CN)[C@@H](O)[C@@H](O)[C@H]2O)[C@H](O)[C@H]1O[C@H]1O[C@H](CO)[C@@H](O)[C@H](N)[C@H]1O [ABX3002, 3′Epi-KanaA-AHB] |  |  | 32 (≈ 18.7 µg/mL) | 16 to 32
